pKd: −log10 of the molar value.
Experiments:
Conditions in all cases: equilibrium dissociation constant
[1] = target: human MLKL (full length) (Homo sapiens (Human), UniProt Q8NB16); experiment: KINOMEscan binding assay, human MLKL (full length)
Description: (§1) Binding affinity of the test compounds for human MLKL (full length), mouse MLKL (full length), human RIPK1 and human RIPK3 was determined using the KINOMEscan™ technology developed by DiscoverX (USA; http://www.discoverx.com). The assay was conducted according to manufacturer instructions.
(§2) Kinase assays. For most assays, kinase-tagged T7 phage strains were grown in parallel in 24-well blocks in an E. coli host derived from the BL21 strain. E. coli were grown to log-phase and infected with T7 phage from a frozen stock (multiplicity of infection=0.4) and incubated with shaking at 32° C. until lysis (90-150 minutes). The lysates were centrifuged (6,000×g) and filtered (0.2 μm) to remove cell debris. The remaining kinases were produced in HEK-293 cells and subsequently tagged with DNA for qPCR detection. […] The liganded beads were blocked with excess biotin and washed with blocking buffer (SeaBlock (Pierce), 1% BSA, 0.05% Tween 20, 1 mM DTT) to remove unbound ligand and to reduce non-specific phage binding. […] All reactions were performed in polypropylene 384-well plates in a final volume of 20 μL. […] The kinase concentration in the eluates was measured by qPCR.
(§3) An 11-point 3-fold serial dilution of each test compound was prepared in 100% DMSO at 100× final test concentration and subsequently diluted to 1× in the assay (final DMSO concentration=1%). Most Kos were determined using a compound top concentration=30,000 nM.
(§4) KD for each test compound was calculated with a standard dose-response curve using the Hill equation (equation (1)): […]
(§5) The Hill Slope was set to −1.
(§6) Curves were fitted using a non-linear least square fit with the Levenberg-Marquardt algorithm.

[2] = target: human RIPK1 (Homo sapiens (Human), UniProt Q13546); experiment: KINOMEscan binding assay, human RIPK1
Description: as §1, §2, §3, §4, §5, §6

[3] = target: human RIPK3 (Homo sapiens (Human), UniProt Q9Y572); experiment: KINOMEscan binding assay, human RIPK3
Description: as §1, §2, §3, §4, §5, §6

Chain of human RIPK1 (Q13546 whole entry): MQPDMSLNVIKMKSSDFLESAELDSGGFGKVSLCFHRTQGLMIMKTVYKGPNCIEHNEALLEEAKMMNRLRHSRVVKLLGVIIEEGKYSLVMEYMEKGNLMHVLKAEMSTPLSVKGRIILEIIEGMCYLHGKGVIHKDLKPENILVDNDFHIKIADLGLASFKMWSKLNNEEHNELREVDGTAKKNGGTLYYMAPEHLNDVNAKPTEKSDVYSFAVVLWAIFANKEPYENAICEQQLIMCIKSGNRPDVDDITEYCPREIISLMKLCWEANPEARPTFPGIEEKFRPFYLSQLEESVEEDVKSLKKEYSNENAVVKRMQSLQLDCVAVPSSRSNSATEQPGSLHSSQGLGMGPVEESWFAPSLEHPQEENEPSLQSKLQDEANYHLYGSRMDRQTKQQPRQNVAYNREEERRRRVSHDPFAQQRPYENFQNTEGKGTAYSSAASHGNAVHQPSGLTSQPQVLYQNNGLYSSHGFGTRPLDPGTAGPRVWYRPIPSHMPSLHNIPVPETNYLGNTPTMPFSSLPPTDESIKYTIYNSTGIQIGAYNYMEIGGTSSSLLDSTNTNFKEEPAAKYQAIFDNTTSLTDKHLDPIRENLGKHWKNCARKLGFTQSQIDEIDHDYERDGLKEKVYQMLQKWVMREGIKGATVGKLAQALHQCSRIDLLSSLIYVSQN
Chain of human RIPK3 (Q9Y572 whole entry): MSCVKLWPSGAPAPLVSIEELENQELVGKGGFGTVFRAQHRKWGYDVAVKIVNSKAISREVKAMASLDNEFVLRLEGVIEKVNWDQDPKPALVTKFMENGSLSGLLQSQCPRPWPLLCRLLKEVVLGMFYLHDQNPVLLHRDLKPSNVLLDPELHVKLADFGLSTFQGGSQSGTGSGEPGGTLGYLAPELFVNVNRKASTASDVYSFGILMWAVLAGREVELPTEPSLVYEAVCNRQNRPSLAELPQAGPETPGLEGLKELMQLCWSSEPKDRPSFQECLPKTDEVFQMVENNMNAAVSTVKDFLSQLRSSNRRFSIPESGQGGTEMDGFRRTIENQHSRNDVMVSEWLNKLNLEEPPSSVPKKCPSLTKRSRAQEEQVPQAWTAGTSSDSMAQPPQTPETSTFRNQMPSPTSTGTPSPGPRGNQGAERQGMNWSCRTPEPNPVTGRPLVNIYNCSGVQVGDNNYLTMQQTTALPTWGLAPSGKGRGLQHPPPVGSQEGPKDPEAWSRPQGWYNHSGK
Chain of human MLKL (full length) (Q8NB16 whole entry): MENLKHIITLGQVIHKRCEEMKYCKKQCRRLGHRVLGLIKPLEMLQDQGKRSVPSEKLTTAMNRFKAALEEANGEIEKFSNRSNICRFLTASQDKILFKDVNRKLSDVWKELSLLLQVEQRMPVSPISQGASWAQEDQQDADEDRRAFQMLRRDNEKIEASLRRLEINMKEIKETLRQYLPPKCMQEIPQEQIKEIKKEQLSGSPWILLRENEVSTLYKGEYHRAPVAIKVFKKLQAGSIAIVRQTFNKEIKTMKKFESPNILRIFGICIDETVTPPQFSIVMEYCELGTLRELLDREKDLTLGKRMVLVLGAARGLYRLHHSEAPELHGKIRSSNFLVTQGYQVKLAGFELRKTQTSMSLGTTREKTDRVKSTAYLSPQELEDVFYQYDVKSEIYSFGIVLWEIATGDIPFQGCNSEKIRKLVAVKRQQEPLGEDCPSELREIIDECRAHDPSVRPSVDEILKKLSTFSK

Work on `C[C@H](Oc1cc(-c2nn(C)c3ccnc(N)c23)ccc1NS(=O)(=O)C(F)F)c1ccc(F)cc1` [Compound 17, N-(4-{4-amino-1-methyl-1Hpyrazolo[4,3-c]pyridin-3-yl}-2-[(1S)-1-(4-fluorophenyl)ethoxy]phenyl)-1,1-difluoromethanesulfonamide] yielded a pKd [1] of over 9.00, a pKd [2] of under 5.00 and a pKd [3] of under 5.00.

`C[C@H](Oc1cc(-c2nn(C)c3c(-c4cnc(N5CCOCC5)nc4)cnc(N)c23)ccc1NS(=O)(=O)C(F)F)c1ccc(F)cc1` [Compound 110, (S)-N-(4-(4-amino-1-methyl-7-(2-morpholinopyrimidin-5-yl)-1H-pyrazolo[4,3-c]pyridin-3-yl)-2-(1-(4-fluorophenyl)ethoxy)phenyl)-1,1-difluoromethanesulfonamide] was tested, and the pKd [1] was over 9.00, the pKd [2] was under 5.00 and the pKd [3] was under 5.00.

In the case of `Nc1n[nH]c2nccc(-c3ccc(NS(=O)(=O)CC(F)(F)F)c(OCc4ccc(F)cc4)c3)c12` [Compound 67, N-(4-(3-Amino-1H-pyrazolo[3,4-b]pyridin-4-yl)-2-((4-fluorophenyl)methoxy)phenyl)-2,2,2-trifluoroethane-1-sulfonamide], the pKd [1] was over 9.00, the pKd [2] was under 5.00 and the pKd [3] was under 5.00.

With `C[C@H](Oc1cc(-c2nn(C)c3c(-c4cnn(C5CCOCC5)c4)cnc(N)c23)ccc1NS(=O)(=O)N(C)C)c1ccc(F)cc1` [Compound 124] the pKd [1] was 5.00 to 7.00, the pKd [2] was under 5.00 and the pKd [3] was under 5.00.

With `C[C@H](Oc1cc(-c2nn(C)c3c(-c4cnn(C5CCOCC5)c4)cnc(N)c23)ccc1NS(=O)(=O)Cc1ccccc1)c1ccc(F)cc1` [Compound 125, (S)-N-(4-(4-amino-1-methyl-7-(1-(tetrahydro-2H-pyran-4-yl)-1H-pyrazol-4-yl)-1H-pyrazolo[4,3-c]pyridin-3-yl)-2-(1-(4-fluorophenyl)ethoxy)phenyl)-1-phenylmethanesulfonamide] the pKd [1] was 7.00 to 9.00, the pKd [2] was under 5.00 and the pKd [3] was under 5.00.

`C[C@H](Oc1cc(-c2nn(C)c3c(-c4cnc(N5CCCC5)nc4)cnc(N)c23)ccc1NS(=O)(=O)C(F)F)c1ccc(F)cc1` [Compound 114, (S)-N-(4-(4-amino-1-methyl-7-(2-(pyrrolidin-1-yl)pyrimidin-5-yl)-1H-pyrazolo[4,3-c]pyridin-3-yl)-2-(1-(4-fluorophenyl)ethoxy)phenyl)-1,1-difluoromethanesulfonamide] showed a pKd [1] of 7.00 to 9.00, a pKd [2] of under 5.00 and a pKd [3] of under 5.00.

`CCS(=O)(=O)Nc1ccc(-c2cnn3ccnc(N)c23)cc1OCc1ccc(F)cc1` [Compound 64, N-(4-(4-Aminopyrazolo[1,5-a]pyrazin-3-yl)-2-((4-fluorophenyl)methoxy)phenyl)ethane-1-sulfonamide] gave a pKd [1] of 5.00 to 7.00, a pKd [2] of under 5.00 and a pKd [3] of under 5.00.

`Cn1nc(-c2ccc(NS(=O)(=O)C(F)F)c(OCc3ncco3)c2)c2c(N)ncc(-c3cnn(C4CCOCC4)c3)c21` [Compound 151, N-(4-(4-amino-1-methyl-7-(1-(tetrahydro-2H-pyran-4-yl)-1H-pyrazol-4-yl)-1H-pyrazolo[4,3-c]pyridin-3-yl)-2-(oxazol-2-ylmethoxy)phenyl)-1,1-difluoromethanesulfonamide] was tested, and the pKd [1] was over 9.00, the pKd [2] was under 5.00 and the pKd [3] was under 5.00.

`Cn1nc(-c2ccc(NS(=O)(=O)C(F)F)c(OCc3cccc(Cl)c3)c2)c2c(N)ncc(-c3cnn(C4CCOCC4)c3)c21` [Compound 130, N-(4-(4-amino-1-methyl-7-(1-(tetrahydro-2H-pyran-4-yl)-1H-pyrazol-4-yl)-1H-pyrazolo[4,3-c]pyridin-3-yl)-2-((3-chlorobenzyl)oxy)phenyl)-1,1-difluoromethanesulfonamide] showed a pKd [1] of over 9.00, a pKd [2] of under 5.00 and a pKd [3] of under 5.00.

Work on `COC[C@@H](Oc1cc(-c2nn(C)c3c(-c4cnn(C5CCOCC5)c4)cnc(N)c23)ccc1NS(=O)(=O)C(F)F)c1ccc(F)cc1` [Compound 112, (S)—N-(4-(4-amino-1-methyl-7-(1-(tetrahydro-2H-pyran-4-yl)-1H-pyrazol-4-yl)-1H-pyrazolo[4,3-c]pyridin-3-yl)-2-(1-(4-fluorophenyl)-2-methoxyethoxy)phenyl)-1,1-difluoromethanesulfonamide] yielded a pKd [1] of 7.00 to 9.00, a pKd [2] of under 5.00 and a pKd [3] of under 5.00.

`C[C@H](Oc1cc(-c2cnn3ccnc(N)c23)ccc1NS(=O)(=O)C(F)F)c1ccc(F)cc1` [Compound 22, (S)—N-(4-(4-aminopyrazolo[1,5-a]pyrazin-3-yl)-2-(1-(4-fluorophenyl)ethoxy)phenyl)-1,1-difluoromethanesulfonamide] was tested, and the pKd [1] was over 9.00, the pKd [2] was under 5.00 and the pKd [3] was under 5.00.

Work on `Nc1n[nH]c2ccnc(-c3ccc(NS(=O)(=O)C(F)F)c(OCc4ccc(F)cc4)c3)c12` [Compound 68, N-(4-(3-amino-1H-pyrazolo[4,3-c]pyridin-4-yl)-2-((4-fluorophenyl)methoxy)phenyl)-1,1-difluoromethanesulfonamide] yielded a pKd [1] of 5.00 to 7.00, a pKd [2] of under 5.00 and a pKd [3] of under 5.00.

`Nc1n[nH]c2ccnc(-c3ccc(NS(=O)(=O)CC(F)(F)F)c(OCc4ccc(F)cc4)c3)c12` [Compound 65, N-(4-(3-amino-1H-pyrazolo[4,3-c]pyridin-4-yl)-2-((4-fluorophenyl)methoxy)phenyl)-2,2,2-trifluoroethane-1-sulfonamide] was tested, and the pKd [1] was 7.00 to 9.00, the pKd [2] was under 5.00 and the pKd [3] was under 5.00.

`C[C@H](Oc1cc(-c2nn(C)c3c(-c4cnn(C5CCOCC5)c4)cnc(N)c23)ccc1NS(=O)(=O)Cc1ccccc1)c1ccc(F)cc1` [Compound 127, (S)-N-(4-(4-amino-1-methyl-7-(1-(tetrahydro-2H-pyran-4-yl)-1H-pyrazol-4-yl)-1H-pyrazolo[4,3-c]pyridin-3-yl)-2-(1-(4-fluorophenyl)ethoxy)phenyl)-1-phenylmethanesulfonamide] showed a pKd [1] of 7.00 to 9.00.

`C[C@H](Oc1cc(-c2nn(C)c3c(-c4cnn5c4CN(C)CC5)cnc(N)c23)ccc1NS(=O)(=O)C(F)F)c1ccc(F)cc1` [Compound 91, (S)—N-(4-(4-amino-1-methyl-7-(5-methyl-4,5,6,7-tetrahydropyrazolo[1,5-a]pyrazin-3-yl)-1H-pyrazolo[4,3-c]pyridin-3-yl)-2-(1-(4-fluorophenyl)ethoxy)phenyl)-1,1-difluoromethanesulfonamide] was tested, and the pKd [1] was 5.00 to 7.00, the pKd [2] was under 5.00 and the pKd [3] was under 5.00.

Compound `C[C@H](Oc1cc(-c2nn(C)c3c(-c4ccnc(N(C)C)c4)cnc(N)c23)ccc1NS(=O)(=O)C(F)F)c1ccc(F)cc1` [Compound 49, (S)-N-(4-(4-amino-7-(2-(dimethylamino)pyridin-4-yl)-1-methyl-1H-pyrazolo[4,3-c]pyridin-3-yl)-2-(1-(4-fluorophenyl)ethoxy)phenyl)-1,1-difluoromethanesulfonamide] has a pKd [1] of 7.00 to 9.00, a pKd [2] of under 5.00 and a pKd [3] of under 5.00.

Work on `CC(C)Oc1cc(-c2nn(C)c3c(-c4cnn(C5CCOCC5)c4)cnc(N)c23)ccc1NS(=O)(=O)C(F)F` [Compound 144, N-(4-(4-amino-1-methyl-7-(1-(tetrahydro-2H-pyran-4-yl)-1H-pyrazol-4-yl)-1H-pyrazolo[4,3-c]pyridin-3-yl)-2-isopropoxyphenyl)-1,1-difluoromethanesulfonamide] yielded a pKd [1] of over 9.00, a pKd [2] of under 5.00 and a pKd [3] of under 5.00.
